Key:
Experiment in all cases: relative viability (nuclei count vs DMSO), 5 days (fraction); higher = more cells survive
[1] = compound: O=c1[nH]cc(F)c(=O)[nH]1 [5-Fluorouracil] + CC(=O)Nc1cccc(-n2c(=O)n(C3CC3)c(=O)c3c(Nc4ccc(I)cc4F)n(C)c(=O)c(C)c32)c1 [Trametinib] (partner 0.02 µM)
Procedure, shortened: (§1)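 The day after seeding in 1536-well plates, lung cancer cell lines were treated by pin tool with a single drug, or with a fixed anchor-drug dose together with five library-drug doses (not always all listed) in √10 steps. After 5 days, a combined fix-and-stain solution (final 0.05% Triton X-100, 1% formaldehyde, 1 ug/ml Hoechst) was added. Nuclei counted on 4× images gave relative viability as treated counts over vehicle counts, reported as the median of duplicate plates.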

Sulindac + Olaparib = compound: CC1=C(CC(=O)O)c2cc(F)ccc2/C1=C\c1ccc([S+](C)[O-])cc1 [Sulindac] + O=C(c1cc(Cc2n[nH]c(=O)c3ccccc23)ccc1F)N1CCN(C(=O)C2CC2)CC1 [Olaparib] (partner 8 µM)
Procedure, shortened: as §1

[2] = compound: CN[C@@H]1C[C@H]2O[C@@](C)([C@@H]1OC)n1c3ccccc3c3c4c(c5c6ccccc6n2c5c31)C(=O)NC4 [Staurosporine] + CS(=O)(=O)N1CCN(Cc2cc3nc(-c4cccc5[nH]ncc45)nc(N4CCOCC4)c3s2)CC1 [Pictilisib] (partner 1 µM)
Procedure, shortened: as §1

[3] = compound: CN[C@@H]1C[C@H]2O[C@@](C)([C@@H]1OC)n1c3ccccc3c3c4c(c5c6ccccc6n2c5c31)C(=O)NC4 [Staurosporine] + Nc1nc2[nH]cc(CCc3ccc(C(=O)N[C@@H](CCC(=O)O)C(=O)O)cc3)c2c(=O)[nH]1 [Pemetrexed] (partner 0.2 µM)
Procedure, shortened: as §1

| Cell Line | relative viability ([1]; first compound 0.02 µM) | relative viability ([1]; first compound 0.2 µM) | relative viability ([1]; first compound 0.6325 µM) | relative viability ([1]; first compound 2 µM) | relative viability (Sulindac + Olaparib; first compound 0.08 µM) | relative viability (Sulindac + Olaparib; first compound 0.253 µM) | relative viability (Sulindac + Olaparib; first compound 0.8 µM) | relative viability (Sulindac + Olaparib; first compound 2.53 µM) | relative viability (Sulindac + Olaparib; first compound 8 µM) | relative viability ([2]; first compound 0.005 µM) | relative viability ([2]; first compound 0.01581 µM) | relative viability ([2]; first compound 0.1581 µM) | relative viability ([2]; first compound 0.5 µM) | relative viability ([3]; first compound 0.005 µM) | relative viability ([3]; first compound 0.01581 µM) | relative viability ([3]; first compound 0.05 µM) | relative viability ([3]; first compound 0.1581 µM) | relative viability ([3]; first compound 0.5 µM) | relative viability ([2]; first compound 0.05 µM) |
| --- | --- | --- | --- | --- | --- | --- | --- | --- | --- | --- | --- | --- | --- | --- | --- | --- | --- | --- | --- |
| NCI-H23 | 0.483 | 0.331 | 0.285 | 0.211 | 0.32 | 0.319 | 0.367 | 0.258 | 0.282 | 0.319 | 0.114 | 0.162 | 0.113 | 0.459 | 0.143 | 0.216 | 0.163 | 0.113 |  |
| NCI-H838 | 0.482 | 0.579 | 0.373 | 0.246 | 0.941 | 0.798 | 0.65 | 0.809 | 0.914 | 0.19 | 0.151 | 0.144 | 0.126 | 0.205 | 0.148 | 0.144 | 0.111 | 0.112 | 0.172 |
| HCC-366 | 0.332 | 0.238 | 0.14 | 0.0725 | 0.338 | 0.356 |  | 0.399 | 0.508 | 0.106 | 0.0757 | 0.0727 | 0.0401 | 0.133 |  | 0.0702 | 0.0274 | 0.0293 | 0.0691 |
| NCI-H1666 | 0.891 | 0.714 | 0.601 | 0.56 | 0.705 | 0.741 | 0.674 | 0.734 | 0.774 | 0.374 | 0.267 | 0.176 | 0.149 | 0.737 | 0.613 | 0.53 | 0.538 | 0.415 | 0.322 |
| HCC-44 | 1.09 | 1 | 0.692 | 0.599 | 0.983 | 1.05 | 0.773 | 0.933 | 1.01 | 0.147 | 0.152 | 0.133 | 0.131 | 0.629 |  | 0.583 | 0.27 | 0.235 | 0.13 |
| A-427 | 0.747 | 0.773 | 0.58 | 0.382 | 0.74 | 0.787 | 0.8 | 0.742 | 0.821 | 0.524 | 0.335 | 0.103 | 0.106 | 0.633 | 0.58 | 0.335 | 0.209 | 0.175 | 0.329 |
| NCI-H460 | 0.219 | 0.144 | 0.0819 | 0.0387 | 0.579 | 0.417 | 0.432 | 0.342 | 0.635 | 0.316 |  | 0.0535 | 0.0424 | 0.065 | 0.0547 | 0.0426 | 0.0415 | 0.0101 | 0.228 |
| NCI-H441 | 0.567 | 0.499 | 0.402 | 0.38 | 0.514 | 0.537 | 0.442 | 0.476 | 0.624 | 0.426 | 0.152 | 0.155 | 0.12 | 0.246 | 0.203 | 0.177 | 0.157 | 0.147 | 0.178 |
| LK-2 | 0.713 | 0.769 | 0.633 | 0.453 | 0.766 | 0.998 | 0.514 | 0.592 | 0.808 | 0.789 | 0.812 | 0.199 | 0.0791 | 0.331 | 0.255 | 0.269 | 0.0688 | 0.0539 | 0.466 |

From the supplement of paper PMC10307832
